Test results from patent US11135184B2, “Formulations for epidermal repair” (CLARIDEI LABORATORIES, INC., priority 2013, dated 2021).

Legend:
[1] = system: 11β-hydroxysteroid dehydrogenase; conditions: cited from earlier work
[2] = cited from earlier work
[3] = system: histamine-induced scratching behavior; conditions: applied to the skin of mice; cited from earlier work
[4] = system: guinea pig ileum; conditions: cited from earlier work
[5] = system: NF-kappaB; conditions: histamine-stimulated skin; cited from earlier work
[6] = system: serine palmitoyltransferase; conditions: cited from earlier work
[7] = system: lymphocytic transformation; conditions: cited from earlier work
[8] = system: 3′-5′ cyclic AMP phosphodiesterase; conditions: cited from earlier work
[9] = system: atopic dry skin; conditions: cited from earlier work
[10] = system: cutaneous lupus erythematosus; test: prior treatment of a patient with cutaneous lupus erythematosus; assay type: in vivo, human; conditions: one patient
Source text: A patient presented with a three year history of cutaneous lupus erythematosus. They had been suffering from systemic lupus erythematosus for some time before the rash that is characteristic of cutaneous lupus erythematosus appeared on their chest, arms, neck and face.
Prior to treatment with a treatment regime utilizing the formulations of the present disclosure, this patient had been treated with several different treatment regimens representing the standard of care for cutaneous lupus erythematosus patients. […] All attempts to reduce the patient's suffering from cutaneous lupus erythematosus had brought little to no relief.

[11] = system: ultraviolet radiation damage; conditions: in vitro model of cutaneous photoaging; cited from earlier work
[12] = target: T1, Δ4β-reductase (Homo sapiens, UniProt P51857); conditions: in vitro; cited from earlier work
T1 sequence (P51857 1-326): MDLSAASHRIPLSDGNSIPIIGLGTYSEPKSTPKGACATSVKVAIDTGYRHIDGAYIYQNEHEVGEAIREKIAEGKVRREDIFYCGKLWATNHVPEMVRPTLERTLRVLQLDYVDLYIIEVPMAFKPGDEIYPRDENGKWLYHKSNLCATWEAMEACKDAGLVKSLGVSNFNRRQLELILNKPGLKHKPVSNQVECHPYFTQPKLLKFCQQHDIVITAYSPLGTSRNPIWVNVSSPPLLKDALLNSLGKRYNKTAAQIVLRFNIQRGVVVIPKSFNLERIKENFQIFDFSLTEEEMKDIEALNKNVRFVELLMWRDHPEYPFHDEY

[13] = system: Candida albicans; conditions: in vitro; cited from earlier work
[14] = system: Mycobacterium smegmatis; conditions: in vitro; cited from earlier work
[15] = system: Staphylococcus aureus; conditions: in vitro; cited from earlier work
[16] = system: contact dermatitis; conditions: mice, cited from earlier work

CC1(C)[C@@H](OC(=O)CCC(=O)O)CC[C@]2(C)[C@H]3C(=O)C=C4[C@@H]5C[C@@](C)(C(=O)O)CC[C@]5(C)CC[C@@]4(C)[C@]3(C)CC[C@@H]12 [Carbenoxolone]
inhibition of 11β-hydroxysteroid dehydrogenase [1]: inhibits

O=C(O)[C@H](O)[C@@H](O)[C@H](O[C@@H]1O[C@H](CO)[C@H](O)[C@H](O)[C@H]1O)[C@H](O)CO [Lactobionic acid, 4-O-β-galactopyranosyl-β-gluconic acid]
pKa [2]: 3.8

CCCCCCCCCCCCCCCCCC(=O)N[C@@H](CO)[C@H](O)[C@H](O)CCCCCCCCCCCCCC [N-stearoyl-phytosphingosine, N-Stearoyl-phytosphingosine]
histamine-induced scratching behavior [3]: effectively inhibited | anti-histamine effects in the Magnus test [4]: potent anti-histamine effects | activation of the transcription factor NF-kappaB [5]: inhibited

NC(=O)c1cccnc1 [Niacinamide]
de novo synthesis of ceramides (e.g., glucosylceramide and sphingomyelin) [6]: stimulating | expression of serine palmitoyltransferase [6]: up-regulated | antigen-induced lymphocytic transformation [7]: suppress | inhibition of 3′-5′ cyclic AMP phosphodiesterase [8]: Inhibit | transepidermal water loss ([9]; atopic dermatitis): decrease | moisturizer effectiveness compared with white petrolatum ([9]; atopic dry skin): more effective moisturizer than white petrolatum

CC(=O)Oc1ccccc1C(=O)O [aspirin]
effect on cutaneous lupus erythematosus ([10]; orally administered): little or no effect

C[C@H](CCC(=O)O)[C@H]1CC[C@H]2[C@@H]3[C@H](O)C[C@@H]4C[C@H](O)CC[C@]4(C)[C@H]3CC[C@]12C [chenodeoxycholic acid]
inhibition of 11β-hydroxysteroid dehydrogenase [1]: inhibits

CCN(CC)CCCC(C)Nc1ccnc2cc(Cl)ccc12 (centres unmarked) [chloroquin]
effect on cutaneous lupus erythematosus ([10]; orally administered): little or no effect

C[C@]12CCC(=O)C=C1CC[C@@H]1[C@@H]2C(=O)C[C@@]2(C)[C@H]1CC[C@]2(O)C(=O)CO [cortisone]
effect on cutaneous lupus erythematosus ([10]; shots): little or no effect

O=C1O[C@H](CO)[C@@H](O)[C@H](O)[C@H]1O [glucono delta-lactone, Glucono delta-lactone]
protection against ultraviolet radiation [11]: photoprotective activity

CC1(C)[C@@H](O)CC[C@]2(C)[C@H]3C(=O)C=C4[C@@H]5C[C@@](C)(C(=O)O)CC[C@]5(C)CC[C@@]4(C)[C@]3(C)CC[C@@H]12 [glycyrrhetinic acid, 18β-glycyrrhetinic acid]
inhibition of Δ4β-reductase [12]: inhibit | inhibition of 11β-hydroxysteroid dehydrogenase [1]: inhibit

CC1(C)[C@@H](O[C@H]2O[C@H](C(=O)O)[C@@H](O)[C@H](O)[C@H]2O[C@@H]2O[C@H](C(=O)O)[C@@H](O)[C@H](O)[C@H]2O)CC[C@]2(C)[C@H]3C(=O)C=C4[C@@H]5C[C@@](C)(C(=O)O)CC[C@]5(C)CC[C@@]4(C)[C@]3(C)CC[C@@H]12 [glycyrrhizic acid, Glycyrrhizic acid]
growth of Candida albicans [13]: inhibit the growth | growth of Mycobacterium smegmatis [14]: inhibit the growth | growth of Staphylococcus aureus [15]: inhibit the growth | effect on contact dermatitis ([16]; administered orally): ineffective | effectiveness against contact dermatitis compared with prednisolone ([16]; given intraperitoneally): more effective than prednisolone | suppression of contact dermatitis ([16]; given intraperitoneally): suppress

CCCCCCCCCCCCCC[C@@H](O)[C@@H](O)[C@@H](N)CO [phytosphingosine, Phytosphingosine]
histamine-induced scratching behavior [3]: effectively inhibited | anti-histamine effects in the Magnus test [4]: potent anti-histamine effects | activation of the transcription factor NF-kappaB [5]: inhibited

CCN(CCO)CCCC(C)Nc1ccnc2cc(Cl)ccc12.O=S(=O)(O)O (centres unmarked) [plaquenyl]
effect on cutaneous lupus erythematosus ([10]; orally administered): little or no effect

C[C@]12C=CC(=O)C=C1CC[C@@H]1[C@@H]2C(=O)C[C@@]2(C)[C@H]1CC[C@]2(O)C(=O)CO [prednisone]
effect on cutaneous lupus erythematosus ([10]; orally administered): little or no effect
